Measured values published in patent US20260033491A1, “FUNGAL SPORE FORMULATIONS INCLUDING CARRIER FLUIDS” (priority 2018, published 2026).
Like-named read-outs stand apart in the source and are kept apart here. Marks after values point to notes of the source that are not given here.

Tests used:
Format in all cases: cell-based
[1] = test system: Purpureocillium lilacinum spores; assay: Spore viability (germination rate) of Purpureocillium lilacinum spores dispersed in fluid and stored at 30° C.
Experimental: (§1) 3 g of Purpureocillium lilacinum pure spore powder were transferred into a formulation vessel (IKA Type DT-20 mixing vessel with dispersion tool for Ultra Turrax) using a sterile spoon. 12 mL of fluid were added into the respective formulation vessel and dispersed using ultra turrax tube drive control for 1 min at 3000 rpm; change direction after 30 sec. After this 2.8 mL were transferred in four sample bottles (Wheaton Serum vial, Type I) leaving little headspace and closed tight using crimpneck caps (Macherey—Nagel type N 13). Afterwards all sample bottles were transferred to an incubator set at 30° C. and stored for a given time.
(§2) In regular intervals a sample was retrieved from the storage location and analyzed for spore viability. For this purpose, the original samples were thoroughly homogenized. Aliquots of 0.25 g or 250 μL of each sample were transferred into 50 mL falcon tubes. The tubes were filled up to 25 g using a sterile aqueous solution containing 2% Tween 80 and homogenized by vortexing to achieve the first dilution step (1:100 dilution). This dilution was used for further dilution and spotting on agar.
(§3) For these samples, an alternative dispersion/dilution method was applied where the oil phase was stripped from the spores first: 0.25 g or 250 μL of sample are weighted into a 2 mL Eppendorf tube, and 0.5 mL of 2% Tween 80 is added, and the mixture is transferred into an Eppendorf centrifuge where it is centrifuged for 1 min at 10.000 rpm. The supernatant (=upper oily phase) is discarded by using a pipette. […] 250 μL or 0.25 g of each sample were transferred into a sterile 50 mL Falcon tube. The tubes were filled up to 25 g using a sterile aqueous solution containing 2% Tween 80 and homogenized by vortexing to achieve the first dilution step (1:100 dilution). This dilution was used for further dilution and spotting on agar.
(§4) For evaluation of spore germination rate prepare a 1:30000 dilution based on the 1:100 dilution achieved by multiple automated dilution (pipetting robot, 96 well plate). Afterwards 12×12 cm agar plates were taken and spotted with 10 times 5 μL of each sample using an automated 12-Channel pipet. Wait until liquid is soaked up by agar and transfer agar plate to an incubator and incubate at 25° C. for 17 hours. Open the plate and place it under the microscope. Randomly chose one area per spot and record the number of germinated and non-germinated spores that are within the designated field. At least 200 spores per sample need to be evaluated. If needed count more than one field per spot.

[2] = test system: Beauveria bassiana spores; assay: Spore viability (germination rate) of Beauveria bassiana spores dispersed in fluid and stored at 30° C.
Experimental: as §1, with “1.5 g” for “3 g”, “of Beauveria bassiana” for “of Purpureocillium lilacinum”, “spoon. 13.5” for “spoon. 12”, “N 13)” for “N 13).”
as §2, with “viability. Therefore” for “viability. For this purpose,”, “sample are” for “sample were”
as §3, with “phase is” for “phase was”, “sample are” for “sample were”, “dilution is” for “dilution was”
as §4, with “1:15000” for “1:30000”, “are” for “were”, “20°” for “25°”

[3] = test system: Penicillium bilaii spores; assay: Spore viability (germination rate) of Penicillium bilaii spores dispersed in fluid and stored at 30° C.
Experimental: as §1, with “1.5 g” for “3 g”, “of Penicillium bilaii” for “of Purpureocillium lilacinum”, “spoon. 13.5” for “spoon. 12”, “N 13)” for “N 13).”
as §2, with “viability. Therefore” for “viability. For this purpose,”, “sample are” for “sample were”
Not all samples mixed well or mixed at all in 2% Tween 80. For these samples, an alternative dispersion/dilution method was applied where the oil phase is stripped from the spores first: 0.25 g or 250 μL of sample are weighted into a 2 mL Eppendorf tube, and 0.5 mL of 2% Tween 80 is added, and the mixture is transferred into an Eppendorf centrifuge where it is centrifuged for 1 min at 10.000 rpm. The supernatant (=upper oily phase) is discarded by using a pipette. Afterwards 250 μL of Breakthru S 240 are added and the spores are well dispersed. 250 μL or 0.25 g of each sample are transferred into a sterile 50 mL Falcon tube. The tubes were filled up to 25 g using a sterile aqueous solution containing 2% Tween 80 and homogenized by vortexing to achieve the first dilution step (1:100 dilution). This dilution is used for further dilution and spotting on agar.
as §4, with “1:15000” for “1:30000”, “are” for “were”, “20°” for “25°”

[4] = P. lilacinum spores in fluid, day 1
[5] = P. lilacinum spores in fluid, storage at 30° C., 35-40 d
[6] = P. lilacinum spores in fluid, storage at 30° C., 87-92 d
[7] = Beauveria bassiana spores in fluid, day 1
[8] = Beauveria bassiana spores in fluid, storage at 30° C., 14 d
[9] = Beauveria bassiana spores in fluid, storage at 30° C., 35 d
[10] = Penicillium bilaii spores in fluid, 1-2 d
[11] = Penicillium bilaii spores in fluid, storage at 30° C., 41-43 d
[12] = Penicillium bilaii spores in fluid, storage at 30° C., 83-85 d
[13] = P. lilacinum spores in fluid, storage at 30° C., 12-15 d
[14] = P. lilacinum spores in fluid, storage at 30° C., 27-28 d
[15] = P. lilacinum spores in fluid, storage at 30° C., 51-55 d
[16] = P. lilacinum spores in fluid, storage at 30° C., 7 m

## CCCCOC(=O)CC(CC(=O)OCCCC)(OC(C)=O)C(=O)OCCCC [Acetyltributylcitrat, O-Acetyl citric acid tributyl ester]
[1]; [4]
  spore viability [%] at day 1: 98.9%
[1]; [5]
  spore viability [%] after 5-6 w (35-40 d): 98.0%
[1]; [6]
  spore viability [%] after 3 m (87-92 d): 87.5%
[2]; [7]
  spore viability [%] at day 1: 85.5%
[2]; [8]
  spore viability [%] after 2 w (14 d): 76.7%
[2]; [9]
  spore viability [%] after 5 w (35 d): 58.8%
[3]; [10]
  spore viability [%] initial (1-2 d): 98.4%
[3]; [11]
  spore viability [%] 6 w@30° C. (41-43 d): 83.8%
[3]; [12]
  spore viability [%] 3 m@30° C. (83-85 d): 60.6%

## CC(C)CCCCCCOC(=O)C1CCCCC1C(=O)OCCCCCCC(C)C (stereo not drawn) [Agnique AE829, 1,2-Cyclohexane dicarboxylic acid diisononyl ester]
[1]; [13]
  spore viability [%] after 2 w (12-15 d): 97.3%
[1]; [14]
  spore viability [%] after 1 m (27-28 d): 96.5%
[1]; [15]
  spore viability [%] after 2 m (51-55 d): 89.8%
[2]; [7]
  spore viability [%] at day 1: 89.7%
[2]; [8]
  spore viability [%] after 2 w (14 d): 74.9%
[2]; [9]
  spore viability [%] after 5 w (35 d): 57.8%
[3]; [10]
  spore viability [%] initial (1-2 d): 95.3%
[3]; [11]
  spore viability [%] 6 w@30° C. (41-43 d): 89.4%
[3]; [12]
  spore viability [%] 3 m@30° C. (83-85 d): 71.9%

## CC(C)OC(=O)CCCCC(=O)OC(C)C [Crodamol DA, Diisopropyl adipate]
[1]; [4]
  spore viability [%] at day 1: 98.2%
[1]; [16]
  spore viability [%] taken after 7 m of storage: 51.3* %
[1]; [13]
  spore viability [%] after 2 w (12-15 d): 94.3%
[1]; [14]
  spore viability [%] after 1 m (27-28 d): 95.0%
[1]; [15]
  spore viability [%] after 2 m (51-55 d): 68.2%

## CCCCCOC(=O)CC [Pentyl Propionate, Propionic acid Pentyl ester]
[1]; [4]
  spore viability [%] at day 1: 99.1%
[1]; [5]
  spore viability [%] after 5-6 w (35-40 d): 94.6%
[1]; [6]
  spore viability [%] after 3 m (87-92 d): 16.1%

## CCCCCC[C@@H](O)C/C=C\CCCCCCCC(=O)OC [Radia 7081, Ricinolic acid methylester]
[1]
  spore viability [%] after 1 m (27-28 d): 95.8%
  spore viability [%] after 2 m (51-55 d): 88.6%
  spore viability [%] after 2 w (12-15 d): 94.7%

## CCCCCCCCCCCC(=O)OCC(CC)CCCC (stereo not drawn) [Radia 7127, 2-Ethylhexyl laurate]
[1]; [4]
  spore viability [%] at day 1: 99.1%
[1]; [16]
  spore viability [%] taken after 7 m of storage: 40.6* %
[1]; [13]
  spore viability [%] after 2 w (12-15 d): 99.0%
[1]; [14]
  spore viability [%] after 1 m (27-28 d): 98.3%
[1]; [15]
  spore viability [%] after 2 m (51-55 d): 88.4%
[2]; [7]
  spore viability [%] at day 1: 91.3%
[2]; [8]
  spore viability [%] after 2 w (14 d): 76.3%
[2]; [9]
  spore viability [%] after 5 w (35 d): 68.4%
[3]; [10]
  spore viability [%] initial (1-2 d): 97.1%
[3]; [11]
  spore viability [%] 6 w@30° C. (41-43 d): 96%
[3]; [12]
  spore viability [%] 3 m@30° C. (83-85 d): 77.9%

## CCCCCCCC/C=C\CCCCCCCC(=O)OCC(CC)CCCC (stereo not drawn) [Radia 7331, 2-Ethylhexyl oleate]
[1]; [13]
  spore viability [%] after 2 w (12-15 d): 97.9%
[1]; [14]
  spore viability [%] after 1 m (27-28 d): 95.9%
[1]; [15]
  spore viability [%] after 2 m (51-55 d): 85.9%
[2]; [7]
  spore viability [%] at day 1: 91.5%
[2]; [8]
  spore viability [%] after 2 w (14 d): 81.4%
[2]; [9]
  spore viability [%] after 5 w (35 d): 66.3%
[3]; [10]
  spore viability [%] initial (1-2 d): 97.1%
[3]; [11]
  spore viability [%] 6 w@30° C. (41-43 d): 91.4%
[3]; [12]
  spore viability [%] 3 m@30° C. (83-85 d): 75.7%

## CCCCCCCC/C=C\CCCCCCCC(=O)OCC(CC)CCCC (stereo not drawn) [Radialube 7130, 2-Ethylhexyl oleate]
[1]; [13]
  spore viability [%] after 2 w (12-15 d): 98.5%
[1]; [14]
  spore viability [%] after 1 m (27-28 d): 94.3%
[1]; [15]
  spore viability [%] after 2 m (51-55 d): 87.9%

## Fatty acid monoglyceride diacetate [Radia 7909]
[1]
  spore viability [%] after 3 m (87-92 d): 78.5%
  spore viability [%] after 5-6 w (35-40 d): 96.5%
  spore viability [%] at day 1: 98.1%
[2]
  spore viability [%] after 2 w (14 d): 11.5%
  spore viability [%] after 5 w (35 d): 18.1%
  spore viability [%] at day 1: 75.1%
[3]
  spore viability [%] 3 m@30° C. (83-85 d): 42.0%
  spore viability [%] 6 w@30° C. (41-43 d): 75.6%
  spore viability [%] initial (1-2 d): 90.6%

## Neopentylglycol dicocoate [Radialube 7302]
[2]
  spore viability [%] after 5 w (35 d): 52.7%

## Sorbitan trioleate [Radiasurf 7355]
[1]
  spore viability [%] after 3 m (87-92 d): 64.1%
  spore viability [%] after 5-6 w (35-40 d): 96.4%
  spore viability [%] at day 1: 98.3%
[2]
  spore viability [%] after 2 w (14 d): 71.3%
  spore viability [%] after 5 w (35 d): 60.4%

## Trimethylolpropane Tricocoate [Radialube 7359]
[1]
  spore viability [%] after 1 m (27-28 d): 87.8%
  spore viability [%] after 2 m (51-55 d): 87.5%
  spore viability [%] after 2 w (12-15 d): 60.6^# %
  spore viability [%] at day 1: 58.0^# %
  spore viability [%] taken after 7 m of storage: 87.3* %

## Trimethylolpropane Triisostearate [Radia 7380]
[1]; [13]
  spore viability [%] after 2 w (12-15 d): 96.5%
[1]; [14]
  spore viability [%] after 1 m (27-28 d): 89.3%
[1]; [15]
  spore viability [%] after 2 m (51-55 d): 86.0%

## Trimethylolpropane Trioleate [Radialube 7361]
[1]; [13]
  spore viability [%] after 2 w (12-15 d): 97.2%
[1]; [14]
  spore viability [%] after 1 m (27-28 d): 92.3%
[1]; [15]
  spore viability [%] after 2 m (51-55 d): 85.4%
